Reference: patent US6900193B1, “Structural modification of 19-norprogesterone I: 17-α-substituted-11-β-substituted-4-aryl and 21-substituted 19-norpregnadienedione as new antiprogestational agents” (The United States of America as represented by the …, priority 1996, dated 2005)
Entries after “also recorded” stand apart in the source; their conditions may differ.

How the values were obtained:
[1] = biological target: T1, progesterone receptor (estrogen-primed rabbit uterus) (Oryctolagus cuniculus, UniProt P06186); assay: Relative binding affinity, progesterone receptor; conditions: for RELATIVE BINDING AFFINITY Progesterone / BINDING AFFINITY Progester: progesterone = 100%; for binding affinities compared with the standard, compound 69B: progesterone receptor implied (rabbit or human isoform A not specified); for binding affinity for the progesterone receptor, in words: rabbit uterine, versus CDB-2914 (69B) where stated; for BINDING AFFINITY Progester: Table 2
T1 construct: preparation of cytosols for the progesterone and glucocorticoid receptor assays; from tissue; host or cells: uterus of estradiol-primed immature female New Zealand White rabbits (cytosol)
T1 sequence (P06186 1-930): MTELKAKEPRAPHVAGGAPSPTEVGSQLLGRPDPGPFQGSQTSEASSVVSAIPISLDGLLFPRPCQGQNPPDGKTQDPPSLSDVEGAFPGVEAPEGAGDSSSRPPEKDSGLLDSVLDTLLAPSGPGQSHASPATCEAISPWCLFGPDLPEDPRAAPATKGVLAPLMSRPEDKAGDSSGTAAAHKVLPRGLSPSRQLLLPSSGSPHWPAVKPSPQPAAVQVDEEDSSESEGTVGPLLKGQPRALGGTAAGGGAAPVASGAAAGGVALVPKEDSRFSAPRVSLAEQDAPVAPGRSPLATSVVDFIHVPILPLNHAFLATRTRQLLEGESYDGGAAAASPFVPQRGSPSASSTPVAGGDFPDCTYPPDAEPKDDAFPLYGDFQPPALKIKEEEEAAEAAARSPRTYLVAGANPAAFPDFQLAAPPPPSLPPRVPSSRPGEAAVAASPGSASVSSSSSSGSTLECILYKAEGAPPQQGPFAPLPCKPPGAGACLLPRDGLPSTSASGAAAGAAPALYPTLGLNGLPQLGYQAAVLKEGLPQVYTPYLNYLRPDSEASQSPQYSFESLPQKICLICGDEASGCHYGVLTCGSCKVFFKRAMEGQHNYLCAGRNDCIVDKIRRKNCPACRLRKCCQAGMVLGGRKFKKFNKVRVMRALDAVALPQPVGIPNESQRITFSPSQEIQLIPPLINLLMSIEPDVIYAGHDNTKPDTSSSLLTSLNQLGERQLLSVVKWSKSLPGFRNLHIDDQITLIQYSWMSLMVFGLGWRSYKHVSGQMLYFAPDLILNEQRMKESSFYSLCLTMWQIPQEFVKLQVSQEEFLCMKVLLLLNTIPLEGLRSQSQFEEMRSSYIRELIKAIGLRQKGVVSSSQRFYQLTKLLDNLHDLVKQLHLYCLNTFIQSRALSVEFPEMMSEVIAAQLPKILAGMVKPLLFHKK

[2] = biological target: T2, glucocorticoid receptor (estrogen-primed rabbit thymus) (Oryctolagus cuniculus, UniProt P59667); assay: Relative binding affinity, glucocorticoid receptor; conditions: for RELATIVE BINDING AFFINITY Glucocorticoid / BINDING AFFINITY Glucocortic: estrogen-primed rabbit thymus, dexamethasone = 100%; for binding affinity for the glucocorticoid receptor, in words: rabbit thymus, versus CDB-2914 (69B) where stated; for BINDING AFFINITY Glucocortic: Table 2
T2 construct: preparation of cytosols for the progesterone and glucocorticoid receptor assays; from tissue; host or cells: thymus of estradiol-primed immature female New Zealand White rabbits (cytosol)
T2 sequence (P59667 1-772): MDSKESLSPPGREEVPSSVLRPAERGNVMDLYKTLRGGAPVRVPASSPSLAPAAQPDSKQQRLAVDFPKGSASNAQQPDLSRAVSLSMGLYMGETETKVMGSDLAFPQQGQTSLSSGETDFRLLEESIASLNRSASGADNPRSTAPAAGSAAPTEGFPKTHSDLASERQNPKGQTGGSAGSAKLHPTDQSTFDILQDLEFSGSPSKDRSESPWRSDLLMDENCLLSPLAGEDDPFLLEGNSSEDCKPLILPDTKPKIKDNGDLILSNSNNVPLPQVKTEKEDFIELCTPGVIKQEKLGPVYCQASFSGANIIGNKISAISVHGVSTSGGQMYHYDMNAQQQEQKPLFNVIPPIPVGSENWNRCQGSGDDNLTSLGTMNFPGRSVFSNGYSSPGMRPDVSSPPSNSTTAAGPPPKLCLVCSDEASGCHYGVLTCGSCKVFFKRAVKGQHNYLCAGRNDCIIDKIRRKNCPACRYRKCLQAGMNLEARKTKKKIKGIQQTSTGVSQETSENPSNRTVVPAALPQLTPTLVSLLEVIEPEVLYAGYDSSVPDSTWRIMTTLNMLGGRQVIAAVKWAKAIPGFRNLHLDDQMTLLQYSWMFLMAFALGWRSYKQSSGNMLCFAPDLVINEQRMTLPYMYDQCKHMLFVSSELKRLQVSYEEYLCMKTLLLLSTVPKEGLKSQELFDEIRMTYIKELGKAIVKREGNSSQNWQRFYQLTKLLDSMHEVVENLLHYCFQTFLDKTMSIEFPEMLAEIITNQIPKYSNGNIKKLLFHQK

| SMILES | RELATIVE BINDING AFFINITY Progesterone ([1]; estrogen-primed rabbit uterus) [%] | binding affinities compared with the standard, compound 69B [1] | RELATIVE BINDING AFFINITY Glucocorticoid [2] [%] | binding affinity for the progesterone receptor, in words [1] | binding affinity for the glucocorticoid receptor, in words [2] | BINDING AFFINITY Progester ([1]; estrogen-primed rabbit uterus) [%] | RELATIVE BINDING AFFINITY Progesterone ([1]; Table 3, immature estrogen-primed rabbit uterus) | BINDING AFFINITY Glucocortic [2] [%] |
| --- | --- | --- | --- | --- | --- | --- | --- | --- |
| CN(C)c1ccc(C2CC3(C)C(CCC34OCC4=O)C3CCC4=CC(=O)CCC4=C23)cc1 (stereo not drawn) [Compound 12, 17-Spirooxetano-3′-oxo-11β-[4-(N,N-dimethylamino)phenyl]-19-norpregna-4,9-dien-3-one] | 261 | binding affinities greater than that observed for the standard | 32 |  |  |  |  |  |
| CC(=O)O[C@]1(C(=O)CF)CCC2C3CCC4=CC(=O)CCC4=C3C(c3ccc(N(C)C)cc3)C[C@@]21C (stereo partly drawn) [Compound 13, 17α-acetoxy-21-fluoro-11β-[4-(N,N-dimethylamino)phenyl]-19-norpregna-4,9-diene-3,20-dione] | 125 | binding affinities greater than that observed for the standard | 109 | did not show significant differences |  |  |  |  |
| CC(=O)O[C@]1(C(=O)CCl)CCC2C3CCC4=CC(=O)CCC4=C3C(c3ccc(N(C)C)cc3)C[C@@]21C (stereo partly shown) [Compound 14A] | 127 | binding affinities greater than that observed for the standard | 90 | did not show significant differences |  |  |  |  |
| CC(=O)OCC(=O)[C@@]1(OC(C)=O)CCC2C3CCC4=CC(=O)CCC4=C3C(c3ccc(N(C)C)cc3)C[C@@]21C (stereo partly drawn) [Compound 15, 17α,21-diacetoxy-11β-[4-(N,N-dimethylamino)phenyl]-19-norpregna-4,9-diene-3,20-dione] | 103 |  | 51 |  | substantial reduction in glucocorticoid binding affinity; also recorded: low binding affinity |  |  |  |
| CC(=O)O[C@]1(C(=O)CO)CCC2C3CCC4=CC(=O)CCC4=C3C(c3ccc(N(C)C)cc3)C[C@@]21C (stereo partly drawn) [Compound 41, 17α-acetoxy-21-hydroxy-11β-[4-(N,N-dimethylamino)phenyl]-19-norpregna-4,9-diene-3,20-dione] | 62 |  | 71 |  |  |  |  |  |
| CC(=O)O[C@]1(C(C)=O)CC[C@H]2[C@@H]3CCC4=CC(=O)CCC4=C3[C@@H](c3ccc(N(C)C)cc3)C[C@@]21C [Compound 69B, 17α-acetoxy-11β-(4-N,N-dimethylaminophenyl)-19-norpregna-4,9-diene-3,20-dione, reference compound] | 122 |  | 114 |  |  | 122 | 114- % | 114 |
| CC(=O)O[C@]1(C(C)=O)CC[C@H]2[C@@H]3CCC4=CC(=O)CCC4=C3[C@@H](c3ccc(N4CCCCC4)cc3)C[C@@]21C [Compound 71, 17α-Acetoxy-11β-[4(N-Piperidino)phenyl]-19-norpregna-4,9-diene-3,20-dione] |  | binding affinities greater than that observed for the standard |  |  | low binding affinity | 123 |  | 20 |
| CC(=O)OCC(=O)[C@@]1(OC(C)=O)CC[C@H]2[C@@H]3CCC4=CC(=O)CCC4=C3[C@@H](c3ccc(C(C)=O)cc3)C[C@@]21C [Compound 106b, 17α,21-Diacetoxy-11β-(4-acetylphenyl)19-norpregna-4,9-diene-3,20-dione] |  | binding affinities greater than that observed for the standard |  |  |  | 136 |  | 14 |
| COCC(=O)[C@@]1(OC)CC[C@H]2[C@@H]3CCC4=CC(=O)CCC4=C3[C@@H](c3ccc(N(C)C)cc3)C[C@@]21C [Compound 113a, 17α,21-Dimethoxy-11β-[4-(N,N-dimethylamino)phenyl]-19-norpregna-4,9-diene-3,20-dione] |  | binding affinities greater than that observed for the standard |  | high binding affinity | reduced binding affinity | 117 |  | 62 |
| COCC(=O)C1(OC(C)=O)CCC2C3CCC4=CC(=O)CCC4=C3C(c3ccc(N4CCCCC4)cc3)CC21C (stereo not drawn) [Compound 123a, 17α-Acetoxy-1113-[4-(N-piperidino)phenyl]-21-methoxy-19-norpregna-4,9-diene-3,20-dione] |  |  |  |  |  | 174 |  | 11 |
| CC#C[C@]1(O)CC[C@H]2[C@@H]3CCC4=CC(=O)CCC4=C3[C@@H](c3ccc(N(C)C)cc3)C[C@@]21C [mifepristone] |  |  |  | greater binding affinity | greater binding affinity |  |  |  |
